PubChem BioAssay (NCI)
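Briefly, cells in 96-well plates were exposed to five compound concentrations for 48 h, and endpoints were estimated by linear interpolation. TGI: concentration producing complete growth inhibition.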 Where a SMILES comes first, the peptide text is derived from it. The star is where a group is joined. Boc = CC(C)(C)OC(=O)*

Tests used:
Assay in all cases: inhibition of tumour cell growth, NCI panel, 48 h
HCT-116 colon = system: HCT-116 colon
HCT-15 colon = system: HCT-15 colon
HT29 colon = system: HT29 colon
KM12 colon = system: KM12 colon
OVCAR-8 ovarian = system: OVCAR-8 ovarian
SF-295 CNS = system: SF-295 CNS
SF-539 CNS = system: SF-539 CNS
U251 CNS = system: U251 CNS
NCI-H226 lung = system: NCI-H226 lung
PC-3 prostate = system: PC-3 prostate

COc1ccc(-c2cc3[nH]nc(N)c3c(=O)o2)cc1
TGI (HCT-116 colon): > 100 µM
TGI (HCT-15 colon): > 100 µM
TGI (HT29 colon): > 100 µM
TGI (KM12 colon): > 100 µM
TGI (OVCAR-8 ovarian): > 100 µM
TGI (SF-295 CNS): > 100 µM
TGI (SF-539 CNS): > 100 µM
TGI (U251 CNS): > 100 µM

COC(=O)C(Cc1c[nH]c2ccccc12)NC(=O)C(Cc1c[nH]c2ccccc12)NC(=O)C(Cc1c[nH]c2ccccc12)NC(=O)C(Cc1c[nH]c2ccccc12)NC(=O)C(Cc1c[nH]c2ccccc12)NC(=O)C(Cc1c[nH]c2ccccc12)NC(=O)C(Cc1c[nH]c2ccccc12)NC(=O)C(Cc1c[nH]c2ccccc12)NC(=O)OC(C)(C)C (stereo not drawn) (Boc-WWWWWWWW-OMe; configuration not given here)
TGI (HCT-116 colon): > 100 µM
TGI (HCT-15 colon): > 100 µM
TGI (HT29 colon): > 100 µM
TGI (NCI-H226 lung): > 100 µM
TGI (OVCAR-8 ovarian): > 100 µM
TGI (PC-3 prostate): > 100 µM
TGI (U251 CNS): > 100 µM

CCOC(=O)CCC(NC(=O)c1ccc(OCc2ccc3nc(-c4ccccc4)c(Cl)nc3c2)cc1)C(=O)OCC (stereo not drawn)
TGI (HCT-116 colon): > 31.6 µM
TGI (HCT-15 colon): > 31.6 µM
TGI (HT29 colon): > 31.6 µM
TGI (KM12 colon): > 31.6 µM
TGI (NCI-H226 lung): 68.8 µM
TGI (OVCAR-8 ovarian): 25.3 µM
TGI (SF-295 CNS): > 31.6 µM
TGI (SF-539 CNS): 28.7 µM
TGI (U251 CNS): > 31.6 µM

Cn1cc2ccccc2c1-c1nc(F)nc(OCC(=O)[C@H]2CCC3[C@@H]4CCC5=CC(=O)CC[C@]5(C)C4[C@@H](O)C[C@@]32C)n1 (stereo partly drawn)
TGI (HCT-116 colon): 27 µM
TGI (HCT-15 colon): 20.7 µM
TGI (HT29 colon): 42.7 µM
TGI (KM12 colon): 33.3 µM
TGI (NCI-H226 lung): 36.5 µM
TGI (OVCAR-8 ovarian): 18.5 µM
TGI (SF-295 CNS): 44.4 µM
TGI (SF-539 CNS): 35.1 µM
TGI (U251 CNS): 36 µM

COC(=O)c1c2cccccc-2c(Cc2c3cccccc-3c(C(=O)OC)c2O)c1O
TGI (HCT-116 colon): > 100 µM
TGI (HCT-15 colon): > 100 µM
TGI (HT29 colon): > 100 µM
TGI (KM12 colon): > 100 µM
TGI (NCI-H226 lung): > 100 µM
TGI (OVCAR-8 ovarian): > 100 µM
TGI (SF-295 CNS): > 100 µM
TGI (SF-539 CNS): > 100 µM
TGI (U251 CNS): > 100 µM

Nc1nc2c3nc(Nc4ccccc4)sc3nc(=O)n2c2sc(Nc3ccccc3)nc12
TGI (HCT-116 colon): > 100 µM
TGI (HCT-15 colon): > 100 µM
TGI (HT29 colon): > 100 µM
TGI (NCI-H226 lung): > 100 µM
TGI (OVCAR-8 ovarian): > 100 µM
TGI (SF-295 CNS): > 100 µM
TGI (SF-539 CNS): > 100 µM
TGI (U251 CNS): > 100 µM

CN(C)c1nc(Cl)c2c(-c3ccccc3)c(-c3ccccc3)oc2n1
TGI (HCT-116 colon): > 100 µM
TGI (HCT-15 colon): > 100 µM
TGI (HT29 colon): > 100 µM
TGI (KM12 colon): > 100 µM
TGI (NCI-H226 lung): > 100 µM
TGI (OVCAR-8 ovarian): > 100 µM
TGI (SF-295 CNS): > 100 µM
TGI (SF-539 CNS): > 100 µM
TGI (U251 CNS): > 100 µM

CCN1CCC(O)(c2ccc(Cl)cc2)C(C(=O)c2ccc(Cl)cc2)C1 (stereo not drawn)
TGI (HCT-116 colon): > 100 µM
TGI (HT29 colon): > 100 µM
TGI (KM12 colon): > 100 µM
TGI (OVCAR-8 ovarian): > 100 µM
TGI (SF-295 CNS): > 100 µM
TGI (SF-539 CNS): > 100 µM
TGI (U251 CNS): > 100 µM

Cc1cc2c([nH]c3ccccc32)c2c1OC(C)(C)C1C3CC(C)(C)Oc4c(C)cc5c6ccccc6n(c5c43)C21 (stereo not drawn)
TGI (HCT-116 colon): > 100 µM
TGI (HCT-15 colon): > 100 µM
TGI (HT29 colon): > 100 µM
TGI (KM12 colon): > 100 µM
TGI (OVCAR-8 ovarian): > 100 µM
TGI (SF-295 CNS): > 100 µM
TGI (SF-539 CNS): > 100 µM
TGI (U251 CNS): > 100 µM

C(=C\c1ccco1)/c1cccc(/C=C/c2ccco2)n1
TGI (HCT-116 colon): > 50 µM
TGI (HCT-15 colon): > 50 µM
TGI (HT29 colon): > 50 µM
TGI (KM12 colon): > 50 µM
TGI (NCI-H226 lung): > 50 µM
TGI (OVCAR-8 ovarian): > 50 µM
TGI (SF-295 CNS): > 50 µM
TGI (SF-539 CNS): > 50 µM

COc1cc(/C=c2\sc3n(c2=O)C(c2ccc(Cl)cc2)C2=C(CCCC2C)N=3)cc(OC)c1OC (stereo not drawn)
TGI (HCT-116 colon): > 100 µM
TGI (HCT-15 colon): > 100 µM
TGI (HT29 colon): > 100 µM
TGI (KM12 colon): > 100 µM
TGI (OVCAR-8 ovarian): > 100 µM
TGI (PC-3 prostate): > 100 µM
TGI (U251 CNS): > 100 µM

CC1(C)C2C=CC1C(=O)CC2 (stereo not drawn)
TGI (HCT-116 colon): > 100 µM
TGI (HCT-15 colon): > 100 µM
TGI (HT29 colon): > 100 µM
TGI (KM12 colon): > 100 µM
TGI (NCI-H226 lung): > 100 µM
TGI (OVCAR-8 ovarian): > 100 µM
TGI (SF-295 CNS): > 100 µM
TGI (SF-539 CNS): > 100 µM
TGI (U251 CNS): > 100 µM

O=C1c2ccc(O)c(O)c2C(=O)c2c(O)ccc(O)c21
TGI (HCT-116 colon): 45.2 µM
TGI (HCT-15 colon): 89.1 µM
TGI (HT29 colon): > 100 µM
TGI (KM12 colon): 98.9 µM
TGI (NCI-H226 lung): 50.5 µM
TGI (OVCAR-8 ovarian): 80.8 µM
TGI (SF-295 CNS): 78.5 µM
TGI (SF-539 CNS): 49.2 µM
TGI (U251 CNS): > 100 µM

C=C1C2C[C@@H]3O[C@H]4C[C@H]5O[C@@]6(C[C@@H]7O[C@]8(C[C@H](C)[C@@H]9O[C@@H]%10CC(CO)O[C@@H]%10C[C@@H]9O8)C[C@H](C)[C@@H]7O6)C[C@H]5O[C@H]4[C@H](C)[C@H]3OC(=O)C[C@H]3CC[C@@H]4OC5[C@H]6O[C@]7(CC[C@H]8CC(=C)[C@H](CC[C@@H](C[C@H]1C)O2)O8)CC6O[C@@H]5[C@@H](O7)[C@H]4O3 (stereo partly drawn)
TGI (NCI-H226 lung): 0.00022 µM
TGI (OVCAR-8 ovarian): 0.00513 µM
TGI (PC-3 prostate): > 1 µM
TGI (SF-295 CNS): > 1 µM
TGI (U251 CNS): > 1 µM

COC(=O)C1(C)C=CC(=O)C2(C)C1C(O)C1OC3CC(c4ccoc4)C(C)=C3C1(C)C2CC(=O)O (stereo not drawn)
TGI (HCT-116 colon): > 100 µM
TGI (HCT-15 colon): > 100 µM
TGI (KM12 colon): > 100 µM
TGI (OVCAR-8 ovarian): > 100 µM
TGI (PC-3 prostate): > 100 µM
TGI (SF-295 CNS): > 100 µM
TGI (SF-539 CNS): > 100 µM
TGI (U251 CNS): > 100 µM

CCN(CC)C(=O)C(C)n1cc(C)c(=O)[nH]c1=O (stereo not drawn)
TGI (HCT-116 colon): > 100 µM
TGI (HCT-15 colon): > 100 µM
TGI (HT29 colon): > 100 µM
TGI (KM12 colon): > 100 µM
TGI (OVCAR-8 ovarian): > 100 µM
TGI (SF-295 CNS): > 100 µM
TGI (SF-539 CNS): > 100 µM
TGI (U251 CNS): > 100 µM
